In ChEMBL document CHEMBL3877252, “Fluorescein hydrazones: A series of novel non-intercalative topoisomerase IIα catalytic inhibitors induce G1 arrest and apoptosis in breast and colon cancer cells” (Eur J Med Chem, 2017):

Columns and labels:
[1] = Antiproliferative activity against human T47D cells measured after 72 hrs by CCK8 assay; type: functional, cell-based
[2] = target: T1, DNA topoisomerase 1 (Homo sapiens) (UniProt P11387); experiment: Inhibition of human topoisomerase-1 assessed as inhibition of relaxation of supercoiled pBR322 plasmid DNA at 100 uM measured after 1 hr by ethidium bromide staining based agarose gel electrophoresis relative to control
T1 sequence (whole entry): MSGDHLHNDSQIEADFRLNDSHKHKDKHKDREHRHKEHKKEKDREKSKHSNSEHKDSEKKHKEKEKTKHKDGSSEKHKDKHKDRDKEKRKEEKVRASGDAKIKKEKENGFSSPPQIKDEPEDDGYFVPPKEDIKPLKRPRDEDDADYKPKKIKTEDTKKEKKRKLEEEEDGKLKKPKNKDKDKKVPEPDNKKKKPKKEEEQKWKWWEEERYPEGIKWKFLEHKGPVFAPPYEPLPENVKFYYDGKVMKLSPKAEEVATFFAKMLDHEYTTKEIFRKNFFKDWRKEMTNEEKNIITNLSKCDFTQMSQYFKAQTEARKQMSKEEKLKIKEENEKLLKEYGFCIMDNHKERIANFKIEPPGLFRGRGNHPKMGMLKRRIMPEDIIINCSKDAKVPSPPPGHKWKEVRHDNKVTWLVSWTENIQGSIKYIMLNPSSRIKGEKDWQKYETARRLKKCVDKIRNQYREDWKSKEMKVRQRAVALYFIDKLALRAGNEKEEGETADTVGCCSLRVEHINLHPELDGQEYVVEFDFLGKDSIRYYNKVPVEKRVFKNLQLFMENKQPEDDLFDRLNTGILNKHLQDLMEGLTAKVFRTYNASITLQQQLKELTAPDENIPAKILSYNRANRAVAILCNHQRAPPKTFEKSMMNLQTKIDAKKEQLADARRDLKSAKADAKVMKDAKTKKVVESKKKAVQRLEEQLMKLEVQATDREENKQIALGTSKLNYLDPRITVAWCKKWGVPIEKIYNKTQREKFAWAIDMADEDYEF

[3] = target: DNA topoisomerase 2-alpha (Homo sapiens) (UniProt P11388); experiment: Inhibition of human topoisomerase-2 alpha assessed as inhibition of relaxation of supercoiled pBR322 plasmid DNA at 100 uM measured after 1 hr by ethidium bromide staining based agarose gel electrophoresis relative to control
DNA topoisomerase 2-alpha (Homo sapiens), sequence (P11388 whole entry): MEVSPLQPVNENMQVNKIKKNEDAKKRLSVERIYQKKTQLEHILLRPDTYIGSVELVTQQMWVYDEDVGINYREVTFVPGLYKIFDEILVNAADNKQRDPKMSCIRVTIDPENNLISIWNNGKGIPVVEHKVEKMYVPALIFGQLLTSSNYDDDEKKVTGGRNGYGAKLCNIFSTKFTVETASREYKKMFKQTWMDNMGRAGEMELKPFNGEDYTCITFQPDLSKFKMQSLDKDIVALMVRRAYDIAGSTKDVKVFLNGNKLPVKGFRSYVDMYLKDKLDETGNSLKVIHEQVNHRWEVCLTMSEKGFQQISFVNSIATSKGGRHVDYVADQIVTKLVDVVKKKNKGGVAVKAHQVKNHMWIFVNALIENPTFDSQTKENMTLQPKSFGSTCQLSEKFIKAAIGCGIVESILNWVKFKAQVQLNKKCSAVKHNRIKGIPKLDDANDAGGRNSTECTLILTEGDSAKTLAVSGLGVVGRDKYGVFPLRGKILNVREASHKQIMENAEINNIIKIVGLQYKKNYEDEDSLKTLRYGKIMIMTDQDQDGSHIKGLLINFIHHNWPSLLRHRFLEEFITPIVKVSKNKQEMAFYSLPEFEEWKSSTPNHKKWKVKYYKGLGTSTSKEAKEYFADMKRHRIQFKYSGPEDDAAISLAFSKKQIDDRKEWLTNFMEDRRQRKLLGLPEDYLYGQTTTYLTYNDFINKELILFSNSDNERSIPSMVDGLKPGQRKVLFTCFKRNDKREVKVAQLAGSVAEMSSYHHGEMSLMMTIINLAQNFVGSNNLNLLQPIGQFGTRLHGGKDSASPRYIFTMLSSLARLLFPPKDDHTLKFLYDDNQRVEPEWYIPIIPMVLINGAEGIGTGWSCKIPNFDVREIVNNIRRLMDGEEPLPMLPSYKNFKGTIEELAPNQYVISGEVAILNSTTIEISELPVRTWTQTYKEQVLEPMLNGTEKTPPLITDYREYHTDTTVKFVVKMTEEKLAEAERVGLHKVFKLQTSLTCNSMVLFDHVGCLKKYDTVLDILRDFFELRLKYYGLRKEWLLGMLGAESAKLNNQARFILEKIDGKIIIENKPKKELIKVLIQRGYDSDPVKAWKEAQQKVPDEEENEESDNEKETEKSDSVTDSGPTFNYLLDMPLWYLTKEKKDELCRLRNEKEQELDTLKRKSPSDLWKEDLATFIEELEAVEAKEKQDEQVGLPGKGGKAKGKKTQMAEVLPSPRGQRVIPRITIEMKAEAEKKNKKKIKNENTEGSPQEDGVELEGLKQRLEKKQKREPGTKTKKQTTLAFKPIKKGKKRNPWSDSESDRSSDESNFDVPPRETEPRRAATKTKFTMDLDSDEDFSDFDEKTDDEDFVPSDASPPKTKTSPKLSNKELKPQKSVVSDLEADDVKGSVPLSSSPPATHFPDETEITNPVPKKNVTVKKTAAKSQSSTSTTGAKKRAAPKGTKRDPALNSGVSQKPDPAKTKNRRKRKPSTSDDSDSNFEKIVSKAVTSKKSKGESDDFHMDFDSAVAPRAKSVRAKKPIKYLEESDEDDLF

[4] = target: DNA topoisomerase 2-alpha (Homo sapiens) (UniProt P11388); experiment: Inhibition of human topoisomerase-2 alpha assessed as inhibition of relaxation of supercoiled pBR322 plasmid DNA at 20 uM measured after 1 hr by ethidium bromide staining based agarose gel electrophoresis relative to control
[5] = Antiproliferative activity against human DU145 cells measured after 72 hrs by CCK8 assay; type: functional, cell-based; details: DU-145, 72 h
[6] = Antiproliferative activity against human HCT15 cells measured after 72 hrs by CCK8 assay; type: functional, cell-based; details: HCT-15, 72 h
[7] = Antiproliferative activity against human MCF7 cells measured after 72 hrs by CCK8 assay; type: functional, cell-based; details: MCF7, 72 h
[8] = target: T1, DNA topoisomerase 1 (Homo sapiens); experiment: Inhibition of human topoisomerase-1 assessed as inhibition of relaxation of supercoiled pBR322 plasmid DNA at 20 uM measured after 1 hr by ethidium bromide staining based agarose gel electrophoresis relative to control
Bos taurus = organism: Bos taurus; experiment: Displacement of ethidium bromide from calf thymus DNA measured after 30 mins by fluorescence quenching assay

Row | SMILES | IC50 [1] | inhibition [2] | inhibition [3] | inhibition [4] | IC50 [5] | IC50 [6] | IC50 [7] | inhibition [8] | inhibition (Bos taurus)
1 | CCOc1ccc2c(c1)Oc1cc(O)ccc1C21c2ccccc2C(=O)N1/N=C/c1ccc(Cl)cc1Cl (stereo unspecified) | > 50 µM | 12.3% | 80% | 2.3% | > 50 µM | 3.17 µM | 23.2 µM |  | 
2 | CCOc1ccc2c(c1)Oc1cc(O)ccc1C21c2ccccc2C(=O)N1/N=C/c1ccccc1OC (stereo unspecified) | > 50 µM | 28.1% | 58.3% | 3.3% | > 50 µM | 0.67 µM | > 50 µM |  | 
3 | CCOc1ccc2c(c1)Oc1cc(OC(=O)c3ccccc3Cl)ccc1C21c2ccccc2C(=O)N1/N=C/c1ccc(Cl)cc1 (stereo unspecified) | > 50 µM | 90.5% | 83.7% | 1.5% | > 50 µM | 28.7 µM | > 50 µM | 36.4% | 
4 | COc1cc(NS(C)(=O)=O)ccc1Nc1c2ccccc2nc2ccccc12 |  |  |  |  |  |  |  |  | Dose-dependent effect
5 | CCOc1ccc2c(c1)Oc1cc(O)ccc1C21c2ccccc2C(=O)N1/N=C/c1ccc(OC)c(O)c1 (stereo unspecified) | 1.61 µM | 77.8% | 37.9% | 2.7% | 1.93 µM | 0.29 µM | 3.64 µM | 4.2% | 
